# Results taken from PMC9126943, “ADAMTS4-specific MR probe to assess aortic aneurysms in vivo using synthetic peptide libraries” (Nature Communications, 2022).
# Entries after “also recorded” stand apart in the source; their conditions may differ. Where a SMILES comes first, the peptide text is derived from it. Bridges are numbered along the chain shown (N, C = ends). The star is where a group is joined. Cy5(nonsulfonated) = CN1C(=CC=CC=CC2=[N+](CCCCCC(=O)*)c3ccccc3C2(C)C)C(C)(C)c2ccccc21
# Biological target: T1, ADAMTS1 (Homo sapiens, UniProt Q9UHI8)
# T1 construct: His; purchased BioTeZ Berlin-Buch GmbH 30 400 402
# T1 sequence (Q9UHI8 253-967): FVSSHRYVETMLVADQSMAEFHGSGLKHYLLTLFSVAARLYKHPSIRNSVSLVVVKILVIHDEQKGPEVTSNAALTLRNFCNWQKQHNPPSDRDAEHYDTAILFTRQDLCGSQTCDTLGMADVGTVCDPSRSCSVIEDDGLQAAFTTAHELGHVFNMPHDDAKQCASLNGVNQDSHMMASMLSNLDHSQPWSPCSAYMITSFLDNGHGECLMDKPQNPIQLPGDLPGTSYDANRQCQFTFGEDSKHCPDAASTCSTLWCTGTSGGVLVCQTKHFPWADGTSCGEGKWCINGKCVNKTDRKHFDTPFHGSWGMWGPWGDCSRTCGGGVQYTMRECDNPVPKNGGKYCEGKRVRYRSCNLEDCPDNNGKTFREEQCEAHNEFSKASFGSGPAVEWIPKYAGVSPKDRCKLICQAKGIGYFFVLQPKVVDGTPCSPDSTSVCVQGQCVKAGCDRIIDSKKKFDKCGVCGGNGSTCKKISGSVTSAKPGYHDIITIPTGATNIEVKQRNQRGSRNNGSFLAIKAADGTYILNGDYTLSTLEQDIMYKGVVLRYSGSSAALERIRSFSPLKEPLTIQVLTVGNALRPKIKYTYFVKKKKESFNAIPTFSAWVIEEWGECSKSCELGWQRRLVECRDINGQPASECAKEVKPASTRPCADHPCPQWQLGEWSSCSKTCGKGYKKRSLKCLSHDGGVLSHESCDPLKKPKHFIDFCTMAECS
# Experiment: MST instrument, ligand-dependent fluorescence change, Cy5-labeled peptide vs ADAMTS1
# Format: binding
# Conditions: Cy5-labeled peptide 3 nM, ADAMTS1 starting concentration 4.88 µM, n = 3
# Experimental: Microscale thermophoresis (MST) was performed on a Monolith Pico (NanoTemper, Munich, Germany). The Cy5-labeled peptides were diluted into the MST buffer (150 mM NaCl, 50 mM TRIS-HCl, 5 mM CaCl2, and Tween-20) to reach a dilution of 6 nM. ADAMTS4, ADAMTS5, and ADAMTS1 were directly used with the supplied concentration. For ADAMTS4, the starting concentration was 4.96 µM, while for ADAMTS1 it was 4.88 µM and for ADAMTS5 it was 2.46 µM. Since we saw a loss of binding after centrifugation, the use of protein concentrators were inappropriate. 20 µl of the protein solutions were transferred into a PCR tube. 10 µl of this first vial was transferred into a second vial and mixed by pipetting with 10 µl of the MST buffer. […] The capillaries were transferred into the Monolith tray and measured with 10% excitation power on the pico-red excitation on high MST power at 25 °C. […] We detected a ligand-dependent fluorescence change for some of the systems. We checked for ADAMTS4 and the ADAMTS4-specific-Cy5-labeled probe via a saturation test for specifying the ligand-dependent fluorescence change. […] The samples were heated at 95 °C for 5 min and measured in the MST. The fluorescence difference between the concentrations was afterward at the same level. Each measurement was repeated three times independently and the binding constant was calculated by merging all three measurements. […]
smiles,measurement,value
C[N+]1=C(C=CC=CC=C2N(CCCCCC(=O)NCCCC[C@H](NC(=O)CNC(=O)CNC(=O)[C@H](CO)NC(=O)CNC(=O)CNC(=O)[C@H](CO)NC(=O)[C@@H]3CSSC[C@H](N)C(=O)N[C@@H](CO)C(=O)N[C@@H](CCCNC(=N)N)C(=O)N[C@@H](CCCNC(=N)N)C(=O)NCC(=O)N3)C(=O)NCC(N)=O)c3ccccc3C2(C)C)C(C)(C)c2ccccc21 [Cy5-labeled probe] (H-CSRRGCSGGSGGK(Cy5(nonsulfonated))G-NH2; disulfide 1-6; N-terminus and C-terminus assumed),"binding to ADAMTS1, in words",determination of the binding constant is not possible; also recorded: plateau was not reached; also recorded: a ligand dependent fluorescence change occurs
